In ChEMBL document CHEMBL3045975, “In vitro anti-inflammatory potential and QSAR analysis of oxazolo/thiazolo pyrimidine derivatives” (Med Chem Res, 2013):

assay: In vitro anti-inflammatory activity assessed as inhibition of heat-induced albumin denaturtion incubated for 15 min followed by heating measured after 10 min; assay type: functional

Compared with `COc1ccc(C2C(C(=O)Nc3ccccc3)=C(C)N=c3s/c(=C\c4ccc(N(C)C)cc4)c(=O)n32)cc1` (configuration not stated), `CC1=C(C(=O)Nc2ccccc2)C(c2ccc(Cl)cc2)n2c(s/c(=C\c3ccc(N(C)C)cc3)c2=O)=N1` (configuration not stated) is higher in IC50: 301.677 ppm for the first, 309.862 ppm for the second.

Going from `CC1=C(C(=O)Nc2ccccc2)C(c2ccccc2)n2c(o/c(=C\c3ccc([N+](=O)[O-])cc3)c2=O)=N1` (configuration not stated) to `CC1=C(C(=O)Nc2ccccc2)C(c2ccccc2)n2c(o/c(=C\c3ccc(Cl)cc3)c2=O)=N1` (configuration not stated), the IC50 falls from 283.525 ppm to 261.464 ppm.

Compared with `CC1=C(C(=O)Nc2ccccc2)C(c2ccc(Cl)cc2)n2c(o/c(=C\c3ccc([N+](=O)[O-])cc3)c2=O)=N1` (configuration not stated), `CC1=C(C(=O)Nc2ccccc2)C(c2ccc([N+](=O)[O-])cc2)n2c(o/c(=C\c3ccc(Cl)cc3)c2=O)=N1` (configuration not stated) is higher in IC50: 192.486 ppm for the first, 196.05 ppm for the second.

First: COc1ccc(/C=c2\sc3n(c2=O)C(c2ccc([N+](=O)[O-])cc2)C(C(=O)Nc2ccccc2)=C(C)N=3)cc1 (configuration not stated)
Second: COc1ccc(C2C(C(=O)Nc3ccccc3)=C(C)N=c3s/c(=C\c4ccc([N+](=O)[O-])cc4)c(=O)n32)cc1 (configuration not stated)
The IC50 of the first is lower: 250.38 ppm for the first, 254.99 ppm for the second.

Compared with `COc1ccc(C2C(C(=O)Nc3ccccc3)=C(C)N=c3o/c(=C\c4ccc(N(C)C)cc4)c(=O)n32)cc1` (configuration not stated), `CC1=C(C(=O)Nc2ccccc2)C(c2ccc(Cl)cc2)n2c(o/c(=C\c3ccc(N(C)C)cc3)c2=O)=N1` (configuration not stated) is higher in IC50: 314.544 ppm for the first, 319.524 ppm for the second.

First: COc1ccc(/C=c2\sc3n(c2=O)C(c2ccccc2)C(C(=O)Nc2ccccc2)=C(C)N=3)cc1 (configuration not stated)
Second: CC1=C(C(=O)Nc2ccccc2)C(c2ccccc2)n2c(s/c(=C\c3ccc(Cl)cc3)c2=O)=N1 (configuration not stated)
The IC50 of the first is higher: 291.257 ppm for the first, 226.318 ppm for the second.

First: COc1ccc(C2C(C(=O)Nc3ccccc3)=C(C)N=c3o/c(=C\c4ccc(Cl)cc4)c(=O)n32)cc1 (configuration not stated)
Second: COc1ccc(/C=c2\oc3n(c2=O)C(c2ccc(Cl)cc2)C(C(=O)Nc2ccccc2)=C(C)N=3)cc1 (configuration not stated)
The IC50 of the first is lower: 236.954 ppm for the first, 242.144 ppm for the second.

First: CC1=C(C(=O)Nc2ccccc2)C(c2ccccc2)n2c(o/c(=C\c3ccc(N(C)C)cc3)c2=O)=N1 (configuration not stated)
Second: COc1ccc(/C=c2\oc3n(c2=O)C(c2ccccc2)C(C(=O)Nc2ccccc2)=C(C)N=3)cc1 (configuration not stated)
The IC50 of the first is higher: 330.312 ppm for the first, 304.179 ppm for the second.

Compared with `COc1ccc(C2C(C(=O)Nc3ccccc3)=C(C)N=c3s/c(=C\c4ccc(Cl)cc4)c(=O)n32)cc1` (configuration not stated), `COc1ccc(/C=c2\sc3n(c2=O)C(c2ccc(Cl)cc2)C(C(=O)Nc2ccccc2)=C(C)N=3)cc1` (configuration not stated) is higher in IC50: 210.874 ppm for the first, 232.597 ppm for the second.

First: CC1=C(C(=O)Nc2ccccc2)C(c2ccc([N+](=O)[O-])cc2)n2c(s/c(=C\c3ccc(Cl)cc3)c2=O)=N1 (configuration not stated)
Second: CC1=C(C(=O)Nc2ccccc2)C(c2ccc(Cl)cc2)n2c(s/c(=C\c3ccc([N+](=O)[O-])cc3)c2=O)=N1 (configuration not stated)
The IC50 of the first is higher: 194.611 ppm for the first, 190.42 ppm for the second.

First: CC1=C(C(=O)Nc2ccccc2)C(c2ccc([N+](=O)[O-])cc2)n2c(s/c(=C\c3ccc(N(C)C)cc3)c2=O)=N1 (configuration not stated)
Second: CC1=C(C(=O)Nc2ccccc2)C(c2ccc([N+](=O)[O-])cc2)n2c(o/c(=C\c3ccc(N(C)C)cc3)c2=O)=N1 (configuration not stated)
The IC50 of the first is lower: 336.75 ppm for the first, 339.35 ppm for the second.

Compared with `O=C([O-])Cc1ccccc1Nc1c(Cl)cccc1Cl.[Na+]` [DICLOFENAC SODIUM], `CC1=C(C(=O)Nc2ccccc2)C(c2ccccc2)n2c(s/c(=C\c3ccc([N+](=O)[O-])cc3)c2=O)=N1` (configuration not stated) is higher in IC50: 188.24 ppm for the first, 253.376 ppm for the second.

First: COc1ccc(/C=c2\oc3n(c2=O)C(c2ccc([N+](=O)[O-])cc2)C(C(=O)Nc2ccccc2)=C(C)N=3)cc1 (configuration not stated)
Second: COc1ccc(C2C(C(=O)Nc3ccccc3)=C(C)N=c3o/c(=C\c4ccc([N+](=O)[O-])cc4)c(=O)n32)cc1 (configuration not stated)
The IC50 of the first is lower: 259.104 ppm for the first, 272.584 ppm for the second.

`CC1=C(C(=O)Nc2ccccc2)C(c2ccccc2)n2c(s/c(=C\c3ccc(N(C)C)cc3)c2=O)=N1` (configuration not stated) showed an IC50 of 316.686 ppm.
